Measurements published in PubChem BioAssay AID2060907 (Molecular Pharmacology Branch, DTP, NCI, 2025).
Each block holds one compound with its values, some of them ahead of it.

System: 388556-164-R-J1-PDC complex spheroid viability
Test: Anticancer human tumor 388556-164-R-J1-PDC patient-derived colon adenocarcinoma cell line growth inhibition [RAS]
Details: for IC50: curve of first compound; for viability, T/C: stronger effect = lower value
Summary of the method: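 Agents were tested in combination matrices in half-log decrements from a top concentration at or near clinical Cmax (10 microM if undetermined). Targets were multi-cell spheroids of tumour lines plus HUVEC and MSC stromal cells.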

[1] = second compound 0.0316 µM, first compound 0.00316 µM
[2] = second compound 0.0316 µM, first compound 0.01 µM
[3] = second compound 0.0316 µM, first compound 0.0316 µM
[4] = second compound 0.0316 µM, first compound 0.1 µM
[5] = second compound 0.0316 µM, first compound 0.316 µM
[6] = second compound 0.0316 µM, first compound 1 µM
[7] = second compound 0.1 µM, first compound 0.00316 µM
[8] = second compound 0.1 µM, first compound 0.01 µM
[9] = second compound 0.1 µM, first compound 0.0316 µM
[10] = second compound 0.1 µM, first compound 0.1 µM
[11] = second compound 0.1 µM, first compound 0.316 µM
[12] = second compound 0.1 µM, first compound 1 µM
[13] = second compound 0.316 µM, first compound 0.00316 µM
[14] = second compound 0.316 µM, first compound 0.01 µM
[15] = second compound 0.316 µM, first compound 0.0316 µM
[16] = second compound 0.316 µM, first compound 0.1 µM
[17] = second compound 0.316 µM, first compound 0.316 µM
[18] = second compound 0.316 µM, first compound 1 µM
[19] = second compound 1 µM, first compound 0.00316 µM
[20] = second compound 1 µM, first compound 0.01 µM
[21] = second compound 1 µM, first compound 0.0316 µM
[22] = second compound 1 µM, first compound 0.1 µM
[23] = second compound 1 µM, first compound 0.316 µM
[24] = second compound 1 µM, first compound 1 µM
[25] = second compound 3.16 µM, first compound 0.00316 µM
[26] = second compound 3.16 µM, first compound 0.01 µM
[27] = second compound 3.16 µM, first compound 0.0316 µM
[28] = second compound 3.16 µM, first compound 0.1 µM
[29] = second compound 3.16 µM, first compound 0.316 µM
[30] = second compound 3.16 µM, first compound 1 µM
[31] = second compound 10 µM, first compound 0.00316 µM
[32] = second compound 10 µM, first compound 0.01 µM
[33] = second compound 10 µM, first compound 0.0316 µM
[34] = second compound 10 µM, first compound 0.1 µM
[35] = second compound 10 µM, first compound 0.316 µM
[36] = second compound 10 µM, first compound 1 µM
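Also: spheroids exposed to compound for 7 days before readout.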
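For viability, T/C in this document: 100% = DMSO vehicle control luminescence.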

IC50 (second compound 0.0316 µM): > 1 µM
IC50 (second compound 0.1 µM): > 1 µM
IC50 (second compound 0.316 µM): 0.765 µM
IC50 (second compound 1 µM): 0.401 µM
IC50 (second compound 3.16 µM): 0.287 µM
IC50 (second compound 10 µM): 0.125 µM
Compound: C=CC(=O)Nc1cc(Nc2nccc(-c3cn(C)c4ccccc34)n2)c(OC)cc1N(C)CCN(C)C + C#Cc1c(F)ccc2cc(O)cc(-c3ncc4c(N5CC6CCC(C5)N6)nc(OCC56CCCN5CC(F)C6)nc4c3F)c12
viability, T/C [1]: 114%
viability, T/C [2]: 98.3%
viability, T/C [3]: 111%
viability, T/C [4]: 92.2%
viability, T/C [5]: 78.9%
viability, T/C [6]: 57.1%
viability, T/C [7]: 110%
viability, T/C [8]: 98%
viability, T/C [9]: 105%
viability, T/C [10]: 94.5%
viability, T/C [11]: 74.5%
viability, T/C [12]: 57.8%
viability, T/C [13]: 98.4%
viability, T/C [14]: 103%
viability, T/C [15]: 80.7%
viability, T/C [16]: 92%
viability, T/C [17]: 72.8%
viability, T/C [18]: 42.5%
viability, T/C [19]: 91.2%
viability, T/C [20]: 99.6%
viability, T/C [21]: 60.5%
viability, T/C [22]: 73.7%
viability, T/C [23]: 61.1%
viability, T/C [24]: 29.8%
viability, T/C [25]: 90.2%
viability, T/C [26]: 70.8%
viability, T/C [27]: 87.3%
viability, T/C [28]: 69%
viability, T/C [29]: 48.5%
viability, T/C [30]: 19.8%
viability, T/C [31]: 67.4%
viability, T/C [32]: 81.5%
viability, T/C [33]: 64.1%
viability, T/C [34]: 56.2%
viability, T/C [35]: 30.8%
viability, T/C [36]: 24.6%

IC50 (second compound 0.000949 µM): 0.241 µM
IC50 (second compound 0.003 µM): 0.173 µM
IC50 (second compound 0.00949 µM): 0.247 µM
IC50 (second compound 0.03 µM): 0.185 µM
IC50 (second compound 0.0949 µM): 0.175 µM
IC50 (second compound 0.3 µM): 0.172 µM
Compound: O=C(c1ccc(F)c(F)c1Nc1ccc(I)cc1F)N1CC(O)([C@@H]2CCCCN2)C1 + CCn1c(-c2cccnc2C(C)OC)c2c3cc(ccc31)N1CCOC(CC(NC(=O)C(C(C)C)N(C)C(=O)C3(F)CCN(C(=O)C#CC(C)(C)N(C)C)CC3)C(=O)N3CCCC(N3)C(=O)OCC(C)(C)C2)C1
viability, T/C (second compound 0.000949 µM, first compound 0.00316 µM): 94%
viability, T/C (second compound 0.000949 µM, first compound 0.01 µM): 91.1%
viability, T/C (second compound 0.000949 µM, first compound 0.0316 µM): 81.7%
viability, T/C (second compound 0.000949 µM, first compound 0.1 µM): 70.6%
viability, T/C (second compound 0.000949 µM, first compound 0.316 µM): 43%
viability, T/C (second compound 0.000949 µM, first compound 1 µM): 25.2%
viability, T/C (second compound 0.003 µM, first compound 0.00316 µM): 104%
viability, T/C (second compound 0.003 µM, first compound 0.01 µM): 97.3%
viability, T/C (second compound 0.003 µM, first compound 0.0316 µM): 76.4%
viability, T/C (second compound 0.003 µM, first compound 0.1 µM): 60.8%
viability, T/C (second compound 0.003 µM, first compound 0.316 µM): 39.5%
viability, T/C (second compound 0.003 µM, first compound 1 µM): 22.5%
viability, T/C (second compound 0.00949 µM, first compound 0.00316 µM): 100%
viability, T/C (second compound 0.00949 µM, first compound 0.01 µM): 96.8%
viability, T/C (second compound 0.00949 µM, first compound 0.0316 µM): 77.7%
viability, T/C (second compound 0.00949 µM, first compound 0.1 µM): 64.8%
viability, T/C (second compound 0.00949 µM, first compound 0.316 µM): 47.6%
viability, T/C (second compound 0.00949 µM, first compound 1 µM): 22.6%
viability, T/C (second compound 0.03 µM, first compound 0.00316 µM): 115%
viability, T/C (second compound 0.03 µM, first compound 0.01 µM): 98.1%
viability, T/C (second compound 0.03 µM, first compound 0.0316 µM): 89.9%
viability, T/C (second compound 0.03 µM, first compound 0.1 µM): 62.5%
viability, T/C (second compound 0.03 µM, first compound 0.316 µM): 37.6%
viability, T/C (second compound 0.03 µM, first compound 1 µM): 22.3%
viability, T/C (second compound 0.0949 µM, first compound 0.00316 µM): 102%
viability, T/C (second compound 0.0949 µM, first compound 0.01 µM): 97.5%
viability, T/C (second compound 0.0949 µM, first compound 0.0316 µM): 84.8%
viability, T/C (second compound 0.0949 µM, first compound 0.1 µM): 57.8%
viability, T/C (second compound 0.0949 µM, first compound 0.316 µM): 41.5%
viability, T/C (second compound 0.0949 µM, first compound 1 µM): 23.3%
viability, T/C (second compound 0.3 µM, first compound 0.00316 µM): 81.5%
viability, T/C (second compound 0.3 µM, first compound 0.01 µM): 81.8%
viability, T/C (second compound 0.3 µM, first compound 0.0316 µM): 72.8%
viability, T/C (second compound 0.3 µM, first compound 0.1 µM): 59.1%
viability, T/C (second compound 0.3 µM, first compound 0.316 µM): 39.7%
viability, T/C (second compound 0.3 µM, first compound 1 µM): 20.2%

IC50 (second compound 0.0316 µM): > 1 µM
IC50 (second compound 0.1 µM): > 1 µM
IC50 (second compound 0.316 µM): > 1 µM
IC50 (second compound 1 µM): > 1 µM
IC50 (second compound 3.16 µM): > 1 µM
IC50 (second compound 10 µM): > 1 µM
Compound: C=CC(=O)N1CCN(c2nc(OCC3CCCN3C)nc3c(F)c(-c4nc(N)cc(C)c4C(F)(F)F)c(Cl)cc23)C(C)C1 (stereo unspecified) + C#Cc1c(F)ccc2cc(O)cc(-c3ncc4c(N5CC6CCC(C5)N6)nc(OCC56CCCN5CC(F)C6)nc4c3F)c12
viability, T/C [1]: 102%
viability, T/C [2]: 117%
viability, T/C [3]: 110%
viability, T/C [4]: 107%
viability, T/C [5]: 110%
viability, T/C [6]: 111%
viability, T/C [7]: 108%
viability, T/C [8]: 109%
viability, T/C [9]: 105%
viability, T/C [10]: 109%
viability, T/C [11]: 112%
viability, T/C [12]: 102%
viability, T/C [13]: 99.4%
viability, T/C [14]: 94.5%
viability, T/C [15]: 97.4%
viability, T/C [16]: 102%
viability, T/C [17]: 111%
viability, T/C [18]: 96.2%
viability, T/C [19]: 95.3%
viability, T/C [20]: 93.1%
viability, T/C [21]: 75.5%
viability, T/C [22]: 89.2%
viability, T/C [23]: 107%
viability, T/C [24]: 86.5%
viability, T/C [25]: 84.4%
viability, T/C [26]: 80.9%
viability, T/C [27]: 85.3%
viability, T/C [28]: 92.1%
viability, T/C [29]: 99.6%
viability, T/C [30]: 80%
viability, T/C [31]: 72.3%
viability, T/C [32]: 58.4%
viability, T/C [33]: 68.7%
viability, T/C [34]: 68.8%
viability, T/C [35]: 76.2%
viability, T/C [36]: 55.8%
